Active and inactive are the calls of the source. No cut-off for these calls is given here.
Legend:
THP-1 = assay: Cytotoxicity against human THP1 cells assessed as reduction in cell viability after 24 hrs by MTT assay; type: functional, cell-based; settings: for IC50: THP-1, 24 h
HepG2 [1] = assay: Upregulation of Bax protein expression in human HepG2 cells at 50 uM after 3 hrs by western blot analysis; type: functional, cell-based
HepG2 [2] = assay: Cytotoxicity against human HepG2 cells assessed as reduction in cell viability after 24 hrs by MTT assay; type: functional, cell-based; settings: for IC50: HepG2, 24 h
L02 = assay: Cytotoxicity against human LO2 cells assessed as reduction in cell viability after 24 hrs by MTT assay; type: cell-based; settings: L02, 24 h
K562 = assay: Cytotoxicity against human K562 cells assessed as reduction in cell viability after 24 hrs by MTT assay; type: functional, cell-based; settings: for IC50: K562, 24 h
HeLa = assay: Cytotoxicity against human HeLa cells assessed as reduction in cell viability after 24 hrs by MTT assay; type: functional, cell-based
HepG2 [3] = assay: Downregulation of Bcl2 protein expression in human HepG2 cells at 50 uM after 3 hrs by western blot analysis; type: functional, cell-based
HepG2 [4] = assay: Antitumor activity against human HepG2 cells xenografted in Balb/c nude mouse assessed as tumor growth inhibition at 1 mg/kg/2 days, ip for 20 days measured on day 21; type: functional, organism-based
[5] = Drug uptake in human HepG2 cell nucleus at 10 mg/ml after 4 hrs by Hoechst 33342 staining based confocal laser scanning microscopic method; type: ADME, subcellular; settings: hepg2, 4 h
Mus musculus = assay: Toxicity in Balb/c nude mouse xenografted with human HepG2 cells assessed as change in body weight at 10 mg/kg/day, ip daily for 20 days measured every 2 days during compound dosing; type: organism-based; settings: in vivo
HepG2 [6] = assay: Induction of apoptosis in human HepG2 cells after 24 hrs by Annexin V-FITC/propidium iodide staining based flow cytometry; type: functional, cell-based
HepG2 [7] = assay: Cytotoxicity against human HepG2 cells assessed as cell morphology disruption at 10 mg/ml after 4 hrs by Hoechst 33342 staining based confocal laser scanning microscopic method; type: functional
[8] = Drug uptake in human HepG2 cell nucleus at 10 mg/ml after 1 to 3 hrs by Hoechst 33342 staining based confocal laser scanning microscopic method; type: ADME, subcellular
HepG2 [9] = assay: Antitumor activity against human HepG2 cells xenografted in Balb/c nude mouse assessed as tumor growth inhibition at 10 mg/kg/day, ip daily for 20 days measured on day 21; type: functional, organism-based
[10] = Drug uptake in human HepG2 cell cytoplasm at 10 mg/ml after 4 hrs by Hoechst 33342 staining based confocal laser scanning microscopic method; type: ADME, subcellular; settings: hepg2, 4 h
[11] = Drug uptake in human HepG2 cell cytoplasm at 10 mg/ml after 1 to 3 hrs by Hoechst 33342 staining based confocal laser scanning microscopic method; type: ADME, subcellular

Row | Structure (SMILES) | IC50 (THP-1) [µM] | IC50 (HepG2 [2]) [µM] | IC50 (L02) [µM] | IC50 (K562) [µM] | IC50 (HeLa) [µM] | further results
1 | COc1cc(/C=C2\CN(C)C/C(=C\c3ccc(C#N)cc3)C2=O)cc(OC)c1OC | 0.82 | 1.14 | 18.6 | 4.29 | 3.42 | Activity (THP-1): Dose-dependent effect; Activity (HepG2 [1]): Active; Activity (HepG2 [2]): Dose-dependent effect; Activity (K562): Dose-dependent effect; Activity (HeLa): Dose-dependent effect; Activity (HepG2 [3]): Active
2 | COc1cc(/C=C2\CN(C)C/C(=C\c3ccccc3F)C2=O)cc(OC)c1 | 1.17 | 1.24 | 11.9 | 6.32 | 5.45 | 
3 | CN1C/C(=C\c2cccc([N+](=O)[O-])c2)C(=O)/C(=C/c2ccc(Cl)cc2Cl)C1 | 3.56 | 4.8 | 14 | 12.4 | 8.9 | 
4 | COc1ccc(/C=C2\CN(C)C/C(=C\c3ccccc3F)C2=O)cc1OC | 11.2 | 8.76 | 10.5 | 18 | 14.3 | 
5 | CN1C/C(=C\c2ccc(Cl)cc2)C(=O)/C(=C/c2cccc([N+](=O)[O-])c2)C1 | 7.87 | 8.21 | > 20 | > 20 | > 20 | 
6 | COc1cc(/C=C2\CN(C)C/C(=C\c3ccc(Cl)cc3Cl)C2=O)cc(OC)c1 | 6.07 | 6.25 | 18.8 | 11.9 | 7.76 | 
7 | COc1ccc(/C=C2\CN(C)C/C(=C\c3ccccc3F)C2=O)cc1 | 15.4 | 12.2 | 22.1 | 18.4 | 23.4 | 
8 | CN1C/C(=C\c2cccc([N+](=O)[O-])c2)C(=O)/C(=C/c2ccccc2F)C1 | 1.01 | 1.08 | 13.5 | 3.89 | 2.34 | 
9 | COc1cccc2c1C(=O)c1c(O)c3c(c(O)c1C2=O)C[C@@](O)(C(=O)CO)C[C@@H]3O[C@H]1C[C@H](N)[C@H](O)[C@H](C)O1 [DOXORUBICIN] | 0.67 | 0.68 | 6.93 |  | 2.23 | TGI (HepG2 [4]): Active
10 | CN1C/C(=C\c2ccc(C(F)(F)F)cc2)C(=O)/C(=C/c2cccc([N+](=O)[O-])c2)C1 | 0.97 | 1.04 | 12.4 | 4.78 | 3.56 | Activity (THP-1): Dose-dependent effect; Activity (HepG2 [1]): Active; Activity (HepG2 [2]): Dose-dependent effect; Activity (K562): Dose-dependent effect; Activity (HeLa): Dose-dependent effect; Activity (HepG2 [3]): Active
11 | CN1C/C(=C\c2ccc(C(F)(F)F)cc2)C(=O)/C(=C/c2ccccc2F)C1 | 5.93 | 4.14 | 18.6 | 6.34 | 6.56 | 
12 | COc1cc(/C=C2\CN(C)C/C(=C\c3ccc(Cl)cc3)C2=O)cc(OC)c1 | 5.86 | 5.95 | 18.9 | 13.3 | 11.2 | 
13 | COc1cc(/C=C2\CN(C)C/C(=C\c3cccc([N+](=O)[O-])c3)C2=O)cc(OC)c1OC | 0.89 | 1.89 | 13.6 | 4.2 | 5.54 | 
14 | CN1C/C(=C\c2ccc(C(C)(C)C)cc2)C(=O)/C(=C/c2ccccc2F)C1 | 13.4 | 9.12 | 25.8 | 18.2 | 15.5 | 
15 | COc1cc(/C=C2\CN(C)C/C(=C\c3cccc([N+](=O)[O-])c3)C2=O)cc(OC)c1 | 1.77 | 1.84 | 10.8 | 4.42 | 2.56 | 
16 | COc1cc(/C=C2\CN(C)C/C(=C\c3ccc(Br)cc3)C2=O)cc(OC)c1OC | 5.33 | 6.8 | 15.4 | 12.4 | 11.9 | 
17 | CN1C/C(=C\c2ccc(C#N)cc2)C(=O)/C(=C/c2ccc(Cl)cc2Cl)C1 | 1.91 | 6.25 | 10.8 | 11.9 | 7.76 | 
18 | COc1cc(/C=C2\CN(C)C/C(=C\c3ccc(Br)cc3)C2=O)cc(OC)c1 | 4.27 | 4.84 | 21.3 | 7.42 | 5.9 | 
19 | COc1cc(/C=C2\CN(C)C/C(=C\c3ccc(F)cc3)C2=O)cc(OC)c1 | 5.04 | 6.14 | 21.9 | 11.2 | 10.2 | 

Row | Structure (SMILES) | IC50 (THP-1) [µM] | IC50 (HepG2 [2]) [µM] | IC50 (L02) [µM] | IC50 (K562) [µM] | IC50 (HeLa) [µM] | further results
20 | CN1C/C(=C\c2cccc([N+](=O)[O-])c2)C(=O)/C(=C/c2ccc(Cl)c(Cl)c2)C1 | 5.02 | 5.96 | 14.8 | 15.5 | 9.12 | 
21 | CN1C/C(=C\c2cccc(Br)c2)C(=O)/C(=C/c2cccc([N+](=O)[O-])c2)C1 | 4.03 | 4.89 | 8.07 | 12.2 | 11.1 | 
22 | COc1cc(/C=C2\CN(C)C/C(=C\c3ccc(C#N)cc3)C2=O)cc(OC)c1 | 0.94 | 0.88 | 14 | 4.65 | 3.42 | 
23 | COc1cc(/C=C2\CN(C)C/C(=C\c3cc(OC)c(OC)c(OC)c3)C2=O)cc(OC)c1 | 0.72 | 0.89 | 14.6 | 3.47 | 2.3 | Activity (THP-1): Dose-dependent effect; Activity (HepG2 [1]): Active; Activity (HepG2 [2]): Dose-dependent effect; Activity (K562): Dose-dependent effect; Activity (HeLa): Dose-dependent effect; Activity (HepG2 [3]): Active
24 | CN1C/C(=C\c2ccc(C#N)cc2)C(=O)/C(=C/c2ccccc2F)C1 | 0.81 | 0.59 | 11 | 2.67 | 1.34 | 
25 | CN1C/C(=C\c2ccc(C#N)cc2)C(=O)/C(=C/c2ccc(C(F)(F)F)cc2)C1 | 1.43 | 0.98 | 17.2 | 4.01 | 3.21 | 
26 | COc1cc(/C=C/C(=O)CC(=O)/C=C/c2ccc(O)c(OC)c2)ccc1O [CURCUMIN] | 22.5 | 13.8 | 25.7 | 23.1 | 31.9 | 
27 | COc1cc(/C=C2\CN(C)C/C(=C\c3ccc(Cl)c(Cl)c3)C2=O)cc(OC)c1 | 3.26 | 3.84 | 10.6 | 9.49 | 6.9 | 
28 | COc1cc(/C=C2\CN(C)C/C(=C\c3ccccc3F)C2=O)cc(OC)c1OC | 0.64 | 0.67 | 12.1 | 4.34 | 3.22 | Drug uptake [5]: Active; Activity (Mus musculus): Non-Toxic; Activity (THP-1): Dose-dependent effect; Activity (HepG2 [1]): Active; Activity (HepG2 [2]): Dose-dependent effect; Activity (K562): Dose-dependent effect; Activity (HepG2 [6]): Dose-dependent effect; Activity (HepG2 [7]): Active; Activity (HeLa): Dose-dependent effect; Activity (HepG2 [3]): Active; Drug uptake [8]: Not Active; TGI (HepG2 [9]): Active; Drug uptake [10]: Not Active; Drug uptake [11]: Active
29 | COc1cc(/C=C2\CN(C)C/C(=C\c3ccc(Cl)cc3Cl)C2=O)cc(OC)c1OC | 5.02 | 8.8 | 13.4 | > 20 | > 20 | 
30 | CN1C/C(=C\c2ccc(Br)cc2)C(=O)/C(=C/c2cccc([N+](=O)[O-])c2)C1 | 7.69 | 8.8 | 9.85 | > 20 | 11.9 | 
31 | COc1cc(/C=C2\CN(C)C/C(=C\c3ccc(F)cc3)C2=O)cc(OC)c1OC | 6.13 | 7.34 | 10.7 | 10.2 | 7.25 | 
32 | CN1C/C(=C\c2ccc(F)cc2)C(=O)/C(=C/c2ccc(C#N)cc2)C1 | 5.03 | 6.14 | 20.9 | 11.2 | 10.2 | 
33 | COc1cc(/C=C2\CN(C)C/C(=C\c3ccc(Cl)cc3)C2=O)cc(OC)c1OC | 7.2 | 8.25 | 14 | > 20 | > 20 | 
34 | CN1C/C(=C\c2ccc(F)cc2)C(=O)/C(=C/c2cccc([N+](=O)[O-])c2)C1 | 7.16 | 9.34 | 17.6 | 11.2 | 6.25 | 
35 | COc1cc(/C=C2\CN(C)C/C(=C\c3ccc(Cl)c(Cl)c3)C2=O)cc(OC)c1OC | 5.33 | 6.96 | 18.4 | 16.1 | 13.5 | 
36 | CN1C/C(=C\c2ccc(Cl)cc2)C(=O)/C(=C/c2ccc(C#N)cc2)C1 | 3.18 | 5.95 | 16.2 | 13.3 | 11.2 | 
37 | CN1C/C(=C\c2ccc(Br)cc2)C(=O)/C(=C/c2ccc(C#N)cc2)C1 | 4.4 | 4.84 | 10.5 | 7.42 | 5.9 | 

Reference: ChEMBL document CHEMBL4145528, “Novel dissymmetric 3,5-bis(arylidene)-4-piperidones as potential antitumor agents with biological evaluation in vitro and in vivo” (Eur J Med Chem, 2018)
